# Measured values: patent US11564911B2, “Small molecule dual-inhibitors of TRPV4 and TRPA1 for sanitizing and anesthetizing” (Duke University, priority 2016, dated 2023)
# What was measured:
# Type in all cases: cell-based
# TRPV4 = target: T1, TRPV4 (Sus scrofa, UniProt B3VP30); test: Ca++ imaging in primary articular chondrocytes, GSK101 stimulation; conditions: primary articular chondrocytes (pig), 5 nM GSK101
# T1 construct: primary cells, which express functional and biologically-relevant TRPV4 without directed over-expression of the channel; endogenous in cells; host or cells: primary porcine articular chondrocytes (femoral condyles)
# T1 sequence (B3VP30 1-871): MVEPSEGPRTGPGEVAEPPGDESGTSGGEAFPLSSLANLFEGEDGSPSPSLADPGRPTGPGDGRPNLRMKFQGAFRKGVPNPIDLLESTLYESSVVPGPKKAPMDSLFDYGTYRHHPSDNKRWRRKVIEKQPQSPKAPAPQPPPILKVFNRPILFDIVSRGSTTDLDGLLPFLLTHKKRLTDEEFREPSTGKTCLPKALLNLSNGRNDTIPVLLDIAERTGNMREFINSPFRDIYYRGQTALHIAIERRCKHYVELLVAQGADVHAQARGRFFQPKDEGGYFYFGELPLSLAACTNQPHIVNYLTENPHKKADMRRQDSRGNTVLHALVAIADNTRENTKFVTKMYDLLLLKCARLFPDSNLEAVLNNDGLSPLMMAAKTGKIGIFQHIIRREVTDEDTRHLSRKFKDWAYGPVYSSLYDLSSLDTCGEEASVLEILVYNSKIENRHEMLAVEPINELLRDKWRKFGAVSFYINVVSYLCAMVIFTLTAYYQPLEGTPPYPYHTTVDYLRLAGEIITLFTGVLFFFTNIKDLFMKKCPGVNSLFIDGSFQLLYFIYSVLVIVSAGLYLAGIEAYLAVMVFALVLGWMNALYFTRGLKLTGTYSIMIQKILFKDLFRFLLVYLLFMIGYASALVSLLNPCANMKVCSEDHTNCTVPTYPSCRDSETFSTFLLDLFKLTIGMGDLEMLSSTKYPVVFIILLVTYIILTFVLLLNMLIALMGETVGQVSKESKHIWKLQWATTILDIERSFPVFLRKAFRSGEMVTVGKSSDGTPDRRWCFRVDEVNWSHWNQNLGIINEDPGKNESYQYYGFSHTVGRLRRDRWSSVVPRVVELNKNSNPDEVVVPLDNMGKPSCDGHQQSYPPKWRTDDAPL
# Method: FIGS. 28A-28B: Compound 16-8 inhibits TRPV4 in I° cells more potently than GSK205. […] Inset: Chondrocytes responding to activation with GSK101, fura-2 Ca++ imaging; right-hand image taken at 5 sec after GSK101 application. […] (FIG. 28B) 1° (primary) astrocytes (rat); dose-response comparison between 16-8 and GSK205 in response to 5 nM GSK101. Inset: Astrocytes responding to activation with GSK101; right-hand image taken at 5 sec after GSK101 application (mean±SEM, n=5 independent expts, 200 cells/expt; *p<0.05, t-test).
# Primary porcine chondrocytes derived from femoral condyles of skeletally mature pigs were cultured and subjected to Ca++ imaging as described previously^19,32,62,63.
# [1] = system: primary mouse keratinocytes (1° MK); test: UVB-evoked Ca++ signaling in primary mouse keratinocytes (fluo-4)
# Method: Ca++ imaging of 1° MK was conducted following routine procedures. For UVB stimulation, a customized device was built. The system comprised a printed circuit board for electrical interconnects and mechanical support and an ultraviolet light-emitting diode (UV LED).
# The operating wavelength was 295 nm (FIG. 2A), with a full-width half-max of 12 nm. The optical power was 500 mW. The focal point was aimed at the plane of the upper surface of the quartz coverslip, which was used to minimize UV absorption along the optical path towards the cells (FIG. 2A-C). The optical intensity at the focal point was estimated to be 150 mW/mm^2.
# Ca++ imaging of mouse 1° MK in response to chemical activation of TRPV4 was conducted after loading with 2 μM fura2-AM, following a ratiometric Ca2+ imaging protocol with 340/380 nm […] for dual excitation. Ratios of emissions were acquired at 0.5 Hz. ΔR/R0 was determined as the fraction of the increase of a given ratio over baseline ratio, divided by baseline ratio. For stimulation of cells with UVB, where fura-2 was not suitable because of the proximity of stimulation with 340/380 nm and 295 nm, 2 μM fluo4-AM was used instead. Ca++ imaging was carried out at 488 nm excitation, acquisition of emissions at 0.5 Hz, expressed as ΔF/F0. In the custom-built UV optical system, UV LEDs were capped with a ball lens, a transparent optical window in the shape of a hemispherical lens (FIG. 2B). The LED output optical beam focused at 15-20 mm from the lens, with a spot diameter of approximately 1.5-2.0 mm (FIG. 2C). […] The thermal equilibration stage was set for physiological temperature.
# [2] = system: primary mouse keratinocytes (1° MK); test: ET1 immunocytochemistry in UVB-exposed primary mouse keratinocytes; conditions: 295 nm UVB-LED
# Method: 1° MK were exposed to UVB using the UV optical system (295 nm LED). 24 hours later the cells were fixed and fluorescently immunolabeled for ET1. Digital images were captured and subjected to morphometry.
# Mouse keratinocytes were cultured on collagen coated quartz coverslips and then stimulated from the bottom using the previously mentioned UV optical system using the 295 nm LED. 24 hours later the cells were fixed in 4% formaldehyde in PBS for 20 minutes, permeabilized with 0.1% Triton X-100 in PBS for 10 minutes, washed, then blocked in 10% normal goat serum in PBS for 45 minutes. Coverslips were incubated overnight with primary antibody mouse anti-ET1 (1:200; Abcam), washed three times in PBS and incubated with secondary antibody for 2 hours at 25° C. Coverslips were washed three times in PBS, once with double-distilled H2O. Digital images were captured using a 40× immersion lens on the BX61 Olympus upright microscope. Morphometric analysis was conducted using ImageJ freeware with tailored regions-of-interest.
Compound,"potency versus GSK205, dose-response of peak ΔCa++ (TRPV4)",UVB-evoked Ca++ signal ([1]; GSK205 20 μM),ET1-augmented UVB-induced Ca++ transients ([1]; co-exposure to ET1),ET1 immunoreactivity in UVB-exposed 1° MK [2]
CN(CCc1ccc(Nc2nc(-c3ccccc3)cs2)cc1)Cc1ccccc1 [Compound 16-8],significantly more potent than GSK205,–,–,–
CN(CCc1ccc(Nc2nc(-c3cccnc3)cs2)cc1)Cc1ccccc1 [GSK205],–,strongly down-regulated,greatly diminished,significant down-regulation
